Measurements as given in ChEMBL document CHEMBL1201862, “PubChem BioAssay data set” (2004).
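Tested at 5 concentrations; 48 h exposure; 96-well plates; endpoints linearly interpolated, else capped at highest concentration. The concentration for 50% growth inhibition is given as GI50.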 Calls of active or inactive are those of the source. Rule as the data show it: active = GI50 up to about 1.1 µM and inactive = higher.

What was measured:
Assay in all cases: DTP human tumour cell line panel, 48 h
[1] = system: NCI-H460
[2] = system: OVCAR-8
[3] = system: ACHN
[4] = system: OVCAR-3
[5] = system: KM12
[6] = system: SK-MEL-5
[7] = system: NCI-H522
[8] = system: PC-3
[9] = system: HCT-116
[10] = system: SNB-75
[11] = system: HCT-15
[12] = system: 786-0
[13] = system: CAKI-1
[14] = system: TK-10
[15] = system: U-251
[16] = system: MDA-MB-435
[17] = system: UACC-62
[18] = system: T47D
[19] = system: RPMI-8226
[20] = system: NCI/ADR-RES
[21] = system: SK-MEL-28
[22] = system: SF-295
[23] = system: BT-549
[24] = system: UACC-257
[25] = system: OVCAR-4
[26] = system: EKVX
[27] = system: COLO 205
[28] = system: MDA-N
[29] = system: A498
[30] = system: HOP-62
[31] = system: MCF7
[32] = system: DU-145
[33] = system: M14
[34] = system: SF-268
[35] = system: OVCAR-5
[36] = system: SK-MEL-2
[37] = system: SK-OV-3
[38] = system: UO-31
[39] = system: NCI-H23
[40] = system: SN12C
[41] = system: SF-539
[42] = system: HT-29
[43] = system: A549
[44] = system: MDA-MB-231
[45] = system: SW-620
[46] = system: Hs-578T
[47] = system: SNB-19
[48] = system: RXF 393
[49] = system: HCC 2998
[50] = system: LOX IMVI
[51] = system: MOLT-4
[52] = system: NCI-H226
[53] = system: HL-60
[54] = system: IGROV-1
[55] = system: Malme-3M
[56] = system: K562
[57] = system: SR
[58] = system: CCRF-CEM
[59] = system: HOP-92

## Cc1ccc(Cc2cc(N3CCN(c4cccc(Cl)c4)CC3)nnc2C)cc1
[1]
  GI50: 20.7 µM (inactive)
[2]
  GI50: 54.8 µM (inactive)
[3]
  GI50: 88.5 µM (inactive)
[4]
  GI50: > 100 µM (inactive)
[5]
  GI50: 44.4 µM (inactive)
[6]
  GI50: 11.5 µM (inactive)
[7]
  GI50: 18.7 µM (inactive)
[8]
  GI50: 46.8 µM (inactive)
[9]
  GI50: 22.5 µM (inactive)
[10]
  GI50: 50.4 µM (inactive)
[11]
  GI50: 63.8 µM
[12]
  GI50: 45.2 µM (inactive)
[13]
  GI50: > 100 µM (inactive)
[14]
  GI50: > 100 µM (inactive)
[15]
  GI50: 32.7 µM (inactive)
[16]
  GI50: 27.7 µM (inactive)
[17]
  GI50: > 100 µM (inactive)
[18]
  GI50: 24.3 µM (inactive)
[19]
  GI50: 17.8 µM (inactive)
[20]
  GI50: 43.3 µM (inactive)
[21]
  GI50: > 100 µM (inactive)
[22]
  GI50: 42.9 µM (inactive)
[23]
  GI50: > 100 µM (inactive)
[24]
  GI50: 14.2 µM (inactive)
[25]
  GI50: > 100 µM (inactive)
[26]
  GI50: 34.4 µM (inactive)
[27]
  GI50: 29.6 µM (inactive)
[28]
  GI50: 16.4 µM (inactive)
[29]
  GI50: > 100 µM (inactive)
[30]
  GI50: > 100 µM (inactive)
[31]
  GI50: 76.2 µM (inactive)
[32]
  GI50: > 100 µM (inactive)
[33]
  GI50: > 100 µM (inactive)
[34]
  GI50: > 100 µM (inactive)
[35]
  GI50: > 100 µM (inactive)
[36]
  GI50: 96.2 µM (inactive)
[37]
  GI50: > 100 µM (inactive)
[38]
  GI50: > 100 µM (inactive)
[39]
  GI50: 37.7 µM (inactive)
[40]
  GI50: 56.4 µM (inactive)
[41]
  GI50: 38.1 µM (inactive)
[42]
  GI50: 31.6 µM (inactive)
[43]
  GI50: 43 µM (inactive)
[44]
  GI50: > 100 µM (inactive)
[45]
  GI50: 34.3 µM (inactive)
[46]
  GI50: 54 µM (inactive)
[47]
  GI50: > 100 µM (inactive)
[48]
  GI50: 84.7 µM (inactive)

## Cc1cccc(O)c1-c1nnc(CCCCCCCCc2nnc(-c3c(C)cccc3O)n2N)n1N
[1]
  GI50: 24.3 µM (inactive)
[49]
  GI50: > 100 µM (inactive)
[50]
  GI50: 45.2 µM (inactive)
[2]
  GI50: 1.86 µM (inactive)
[3]
  GI50: > 85.7 µM (inactive)
[4]
  GI50: 50.5 µM (inactive)
[5]
  GI50: 95.1 µM (inactive)
[6]
  GI50: > 100 µM (inactive)
[7]
  GI50: 1.07 µM (active)
[8]
  GI50: > 100 µM (inactive)
[9]
  GI50: 72.3 µM (inactive)
[51]
  GI50: 8.41 µM (inactive)
[52]
  GI50: 55.7 µM (inactive)
[53]
  GI50: 0.139 µM (active)
[10]
  GI50: 25 µM (inactive)
[11]
  GI50: > 100 µM
[12]
  GI50: 2.67 µM (inactive)
[13]
  GI50: > 100 µM (inactive)
[14]
  GI50: > 41.4 µM (inactive)
[15]
  GI50: 23.2 µM (inactive)
[16]
  GI50: > 69.5 µM (inactive)
[17]
  GI50: 66.7 µM (inactive)
[54]
  GI50: > 100 µM (inactive)
[55]
  GI50: > 85.3 µM (inactive)
[18]
  GI50: > 100 µM (inactive)
[56]
  GI50: > 100 µM (inactive)
[19]
  GI50: > 100 µM (inactive)
[21]
  GI50: > 50.2 µM (inactive)
[22]
  GI50: 51.6 µM (inactive)
[23]
  GI50: 15 µM (inactive)
[24]
  GI50: > 100 µM (inactive)
[25]
  GI50: 18.7 µM (inactive)
[26]
  GI50: > 67.3 µM (inactive)
[27]
  GI50: > 31.6 µM (inactive)
[28]
  GI50: > 64.6 µM (inactive)
[29]
  GI50: > 100 µM (inactive)
[57]
  GI50: 19.1 µM (inactive)
[30]
  GI50: 27.6 µM (inactive)
[31]
  GI50: 55 µM (inactive)
[32]
  GI50: > 100 µM (inactive)
[33]
  GI50: > 39.7 µM (inactive)
[34]
  GI50: 51.3 µM (inactive)
[35]
  GI50: > 100 µM (inactive)
[36]
  GI50: 38.3 µM (inactive)
[37]
  GI50: > 60.5 µM (inactive)
[38]
  GI50: 68.5 µM (inactive)
[39]
  GI50: 48.6 µM (inactive)
[40]
  GI50: > 100 µM (inactive)
[58]
  GI50: 0.929 µM (active)
[41]
  GI50: > 96.4 µM (inactive)
[42]
  GI50: > 100 µM (inactive)
[43]
  GI50: > 46.5 µM (inactive)
[44]
  GI50: > 62.2 µM (inactive)
[59]
  GI50: 18 µM (inactive)
[45]
  GI50: > 100 µM (inactive)
[46]
  GI50: 39.9 µM (inactive)
[47]
  GI50: 41.2 µM (inactive)

## COc1c(OC)c(O)c2c(=O)c(OC)c(-c3ccc4c(c3)OCO4)oc2c1O
[1]
  GI50: > 100 µM (inactive)
[49]
  GI50: > 100 µM (inactive)
[50]
  GI50: > 100 µM (inactive)
[2]
  GI50: > 100 µM (inactive)
[3]
  GI50: > 100 µM (inactive)
[4]
  GI50: > 100 µM (inactive)
[5]
  GI50: > 100 µM (inactive)
[6]
  GI50: 38.2 µM (inactive)
[7]
  GI50: > 100 µM (inactive)
[8]
  GI50: > 100 µM (inactive)
[9]
  GI50: 38.6 µM (inactive)
[51]
  GI50: 40.1 µM (inactive)
[52]
  GI50: > 100 µM (inactive)
[53]
  GI50: 19.5 µM (inactive)
[10]
  GI50: > 100 µM (inactive)
[11]
  GI50: > 100 µM
[12]
  GI50: > 100 µM (inactive)
[13]
  GI50: > 100 µM (inactive)
[14]
  GI50: > 100 µM (inactive)
[15]
  GI50: > 100 µM (inactive)
[16]
  GI50: > 100 µM (inactive)
[17]
  GI50: > 100 µM (inactive)
[54]
  GI50: > 100 µM (inactive)
[55]
  GI50: > 100 µM (inactive)
[18]
  GI50: 24.5 µM (inactive)
[56]
  GI50: 85.3 µM (inactive)
[20]
  GI50: > 100 µM (inactive)
[21]
  GI50: > 100 µM (inactive)
[22]
  GI50: 77.4 µM (inactive)
[23]
  GI50: > 100 µM (inactive)
[24]
  GI50: 67 µM (inactive)
[25]
  GI50: > 100 µM (inactive)
[26]
  GI50: > 100 µM (inactive)
[27]
  GI50: > 100 µM (inactive)
[28]
  GI50: > 100 µM (inactive)
[29]
  GI50: > 100 µM (inactive)
[30]
  GI50: > 100 µM (inactive)
[31]
  GI50: > 100 µM (inactive)
[32]
  GI50: > 100 µM (inactive)
[33]
  GI50: > 100 µM (inactive)
[34]
  GI50: > 100 µM (inactive)
[35]
  GI50: > 100 µM (inactive)
[36]
  GI50: > 100 µM (inactive)
[37]
  GI50: > 100 µM (inactive)
[38]
  GI50: > 100 µM (inactive)
[39]
  GI50: > 100 µM (inactive)
[40]
  GI50: > 100 µM (inactive)
[58]
  GI50: 55.5 µM (inactive)
[41]
  GI50: > 100 µM (inactive)
[42]
  GI50: 36.1 µM (inactive)
[43]
  GI50: > 100 µM (inactive)
[44]
  GI50: > 100 µM (inactive)
[59]
  GI50: 1.39 µM (inactive)
[45]
  GI50: > 100 µM (inactive)
[46]
  GI50: > 100 µM (inactive)
[47]
  GI50: > 100 µM (inactive)
[48]
  GI50: 91.4 µM (inactive)
